Test results from patent US20100184596A1, “METHOD FOR THE CONTROL OF WEEDS IN TURF” (SYNGENTA CROP PROTECTION, INC., priority 2007, published 2010).

Key:
Assay type in all cases: in vivo
Clover = experiment: Selective post-emergence herbicidal action, field trial Champaign (Table B1.1); settings: 22 days after application
Protocol: (§1) The selectivity of the compound of formula I in turf (removal of grassy and broadleaf weeds) has been tested in turfgrass varieties selected from Kentucky bluegrass, tall fescue and perennial ryegrass and in […] selected from clover (an aggressive perennial weed) and dandelion (a weed of perennial horticultural crops and gardens which may also be a problem in some annual crops, particularly where reduced tillage is practiced).
(§2) The trials were conducted in Champaign, Ill., U.S. (Table B1.1) and Hudson, N.Y., U.S. (Table B1.2) under field conditions. Turfgrasses were maintained at approximately a 2.5″ height, like a home lawn. Mixed turf and weed stands were present. The test compounds were applied with a CO2 pressurized backpack sprayer by spraying in the form of an aqueous suspension (prepared from a wettable powder) in a concentration of 210 to 280 g/ha. The plots were then mowed and irrigated as needed. After 22 and 28 days respectively, the test is visually evaluated (100%=total damage to plant; 0%=no damage to plant).

Kentucky blue grass = experiment: as above; settings: 22 days after application
Protocol: as §1, §2

Perennial ryegrass = experiment: as above; settings: 22 days after application
Protocol: as §1, §2

Tall fescue = experiment: as above; settings: 22 days after application
Protocol: as §1, §2

[1] = tested on: Kentucky bluegrass (3D blend); experiment: Phytotoxicity via post emergence spray application (Table B2.6); settings: 1 appl
Protocol: The phytotoxicity of the compound of formula I to turfgrass species was tested. The compound was applied via post emergence spray to a range of warm and cool season turfgrass species at various rates and spray treatment treatment regimes. Percentage phytotoxicity assessments were taken at various timepoints.

[2] = tested on: St. Augustinegrass v. Delmar; experiment: Phytotoxicity via granule application (Table B3.1)
Protocol: The phytotoxicity of the compound of formula I to turfgrass species was tested. The compound was applied by distribution of granule formulations of formula I, post emergence, to turfgrass species at two rates. All treatments were watered-in 1 day after application. Percentage phytotoxicity assessments were taken at various timepoints.
Two granule formulations were made and tested. Granule A is an inert granule formulation, comprising 99.06 wt % DG Lite 150 granules, 0.14 wt % compound of formula I, 0.50 wt % Sunspray 6N, and 0.30 wt % HiSil 233. The compound of formula I was added to the DG Lite granules while blending in a Continental Rollo-mixer.
Sunspray 6N oil was then sprayed onto the granules, and HiSil added to dry excess liquid and improve granule flowability. The granules were blended in the mixer for 20-30 minutes until homogeneous, and passed through a −12/+60 mesh to remove over and under sized particles.
Granule B is a fertiliser granule formulation, comprising 54.65 wt % urea, 6.63 wt % triple super phosphate, 4.95 wt % potassion chloride, 9.91 wt % huber clay, 7.22 wt % HiSil 233, 0.16 wt % compound of formula I, […] agnique ME 181, 2.07 wt % stepfac 8180, and 11.98 wt % water. […] The remaining HiSil was added and granules dried at 40-60° C., to remove excess liquid. Finally, the granules were passed through a −12/+60 mesh to remove over and under sized particles.

turfgrass = experiment: Example B4, conclusion in words; settings: in combination with a safener
Protocol: The phytotoxicity to turfgrass of the compound of formula I in combination with various safeners was tested. The combinations were applied by post emergence spray application. Percentage phytotoxicity assessments were taken at various timepoints. The safeners tested in these trials were cloquintocet-mexyl, cyprosulfamide, a compound of formula 2.3, and isoxadifen-ethyl.

[3] = tested on: Bermudagrass v. Tifway 419; experiment: Phytotoxicity via granule application (Table B3.2)
[4] = Granule A (inert), 112 g ai/ha, 20 DAT
[5] = Granule B (fertiliser), 112 g ai/ha, 11 DAT
[6] = Granule B (fertiliser), 112 g ai/ha, 15 DAT
[7] = Granule B (fertiliser), 280 g ai/ha, 11 DAT

COCCOCc1nc(C(F)(F)F)ccc1C(=O)C1=C(O)C2CCC(C2)C1=O (stereo not shown) [Formula I, 4-Hydroxy-3-[2-(2-methoxyethoxymethyl)-6-trifluoromethylpyridine-3-carbonyl]-bicyclo[3.2.1]oct-3-en-2-one]
% damage (Clover; 210 g/ha): 88%
% damage (Clover; 280 g/ha): 92%
% damage (Kentucky blue grass; 210 g/ha): 0%
% damage (Kentucky blue grass; 280 g/ha): 0%
% damage (Perennial ryegrass; 210 g/ha): 0%
% damage (Perennial ryegrass; 280 g/ha): 0%
% damage (Tall fescue; 210 g/ha): 0%
% damage (Tall fescue; 280 g/ha): 0%
% phytotoxicity ([1]; 10 g ai/ha, 4 DAT): 7.50%
% phytotoxicity ([1]; 10 g ai/ha, 12 DAT): 0.00%
% phytotoxicity ([1]; 10 g ai/ha, 22 DAT): 0.00%
% phytotoxicity ([1]; 10 g ai/ha, 33 DAT): 0.00%
% phytotoxicity ([1]; 10 g ai/ha, 42 DAT): 0.00%
% phytotoxicity ([1]; 10 g ai/ha, 160 DAT): 0.00%
% phytotoxicity ([1]; 20 g ai/ha, 4 DAT): 2.50%
% phytotoxicity ([1]; 20 g ai/ha, 12 DAT): 0.00%
% phytotoxicity ([1]; 20 g ai/ha, 22 DAT): 0.00%
% phytotoxicity ([1]; 20 g ai/ha, 33 DAT): 0.00%
% phytotoxicity ([1]; 20 g ai/ha, 42 DAT): 0.00%
% phytotoxicity ([1]; 20 g ai/ha, 160 DAT): 0.00%
% phytotoxicity ([1]; 40 g ai/ha, 4 DAT): 7.50%
% phytotoxicity ([1]; 40 g ai/ha, 12 DAT): 0.00%
% phytotoxicity ([1]; 40 g ai/ha, 22 DAT): 0.00%
% phytotoxicity ([1]; 40 g ai/ha, 33 DAT): 0.00%
% phytotoxicity ([1]; 40 g ai/ha, 42 DAT): 0.00%
% phytotoxicity ([1]; 40 g ai/ha, 160 DAT): 0.00%
% phytotoxicity ([1]; 80 g ai/ha, 4 DAT): 7.50%
% phytotoxicity ([1]; 80 g ai/ha, 12 DAT): 0.00%
% phytotoxicity ([1]; 80 g ai/ha, 22 DAT): 0.00%
% phytotoxicity ([1]; 80 g ai/ha, 33 DAT): 0.00%
% phytotoxicity ([1]; 80 g ai/ha, 42 DAT): 0.00%
% phytotoxicity ([1]; 80 g ai/ha, 160 DAT): 0.00%
% phytotoxicity ([1]; 160 g ai/ha, 4 DAT): 7.50%
% phytotoxicity ([1]; 160 g ai/ha, 12 DAT): 0.00%
% phytotoxicity ([1]; 160 g ai/ha, 22 DAT): 0.00%
% phytotoxicity ([1]; 160 g ai/ha, 33 DAT): 0.00%
% phytotoxicity ([1]; 160 g ai/ha, 42 DAT): 0.00%
% phytotoxicity ([1]; 160 g ai/ha, 160 DAT): 0.00%
% phytotoxicity ([2]; Granule A (inert), 112 g ai/ha, 7 DAT): 8.30%
% phytotoxicity [2, 4]: 0.00%
% phytotoxicity ([2]; Granule A (inert), 280 g ai/ha, 7 DAT): 20.00%
% phytotoxicity ([2]; Granule A (inert), 280 g ai/ha, 11 DAT): 5.70%
% phytotoxicity ([2]; Granule A (inert), 280 g ai/ha, 15 DAT): 3.30%
% phytotoxicity ([2]; Granule B (fertiliser), 112 g ai/ha, 7 DAT): 23.30%
% phytotoxicity [2, 5]: 10.00%
% phytotoxicity [2, 6]: 5.00%
% phytotoxicity [2, 7]: 20.00%
phytotoxicity in combination with a safener, in words (turfgrass): reduces the level of phytotoxicity to turfgrass
% phytotoxicity ([3]; Granule A (inert), 112 g ai/ha, 15 DAT): 0.00%
% phytotoxicity [3, 4]: 0.00%
% phytotoxicity ([3]; Granule A (inert), 112 g ai/ha, 28 DAT): 0.00%
% phytotoxicity ([3]; Granule A (inert), 280 g ai/ha, 28 DAT): 0.00%
% phytotoxicity [3, 5]: 4.00%
% phytotoxicity [3, 6]: 0.00%
% phytotoxicity ([3]; Granule B (fertiliser), 112 g ai/ha, 20 DAT): 0.00%
% phytotoxicity ([3]; Granule B (fertiliser), 112 g ai/ha, 28 DAT): 0.00%
% phytotoxicity [3, 7]: 15.00%
% phytotoxicity ([3]; Granule B (fertiliser), 280 g ai/ha, 15 DAT): 3.30%
% phytotoxicity ([3]; Granule B (fertiliser), 280 g ai/ha, 20 DAT): 1.30%
% phytotoxicity ([3]; Granule B (fertiliser), 280 g ai/ha, 28 DAT): 0.00%
% phytotoxicity ([3]; Spray, 112 g ai/ha, 7 DAT): 30.00%
% phytotoxicity ([3]; Spray, 112 g ai/ha, 11 DAT): 18.30%
% phytotoxicity ([3]; Spray, 112 g ai/ha, 15 DAT): 10.00%
% phytotoxicity ([3]; Spray, 112 g ai/ha, 20 DAT): 3.00%
% phytotoxicity ([3]; Spray, 112 g ai/ha, 28 DAT): 0.00%
% phytotoxicity ([3]; Spray, 280 g ai/ha, 7 DAT): 66.70%
% phytotoxicity ([3]; Spray, 280 g ai/ha, 11 DAT): 25.00%
% phytotoxicity ([3]; Spray, 280 g ai/ha, 15 DAT): 10.00%
% phytotoxicity ([3]; Spray, 280 g ai/ha, 20 DAT): 6.00%
% phytotoxicity ([3]; Spray, 280 g ai/ha, 28 DAT): 0.00%
